1 molecule from publication PMC8898184 (Drug Design, Development and Therapy, 2022) can be followed below.

In the assay the target is T1, Bovine β-lactoglobulin (BLG) (Bos taurus, UniProt P02754).
T1 sequence (P02754 17-178): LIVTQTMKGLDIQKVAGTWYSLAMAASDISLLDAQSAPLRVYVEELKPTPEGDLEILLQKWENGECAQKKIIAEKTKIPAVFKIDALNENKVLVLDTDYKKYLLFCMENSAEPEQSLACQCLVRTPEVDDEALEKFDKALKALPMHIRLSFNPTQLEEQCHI
Put plainly: tryptophan fluorescence quenching. The assay is classed as binding. Conditions: PBS, pH 7.4, 37 °C; 5 μM BLG; double-log.

For the molecule `CC(=O)Oc1ccccc1C(=O)O` [aspirin], the “Kb (×10^3 M^-1)” value was 2.051 × 10^3 M^-1.
